This is an account of results in patent US9346824B2, “Cyclohexyl-4H,6H-5-oxa-2,3,10b-triaza-benzo[e]azulenes as V1a antagonists” (Hoffmann-La Roche Inc., priority 2011, dated 2016).

For this assay, the target named is T1, human V1a receptor (Homo sapiens, UniProt P37288).
T1 construct: expressed in transfected cells; host or cells: HEK293 cells, transiently transfected; cell membranes
T1 sequence (P37288 whole entry): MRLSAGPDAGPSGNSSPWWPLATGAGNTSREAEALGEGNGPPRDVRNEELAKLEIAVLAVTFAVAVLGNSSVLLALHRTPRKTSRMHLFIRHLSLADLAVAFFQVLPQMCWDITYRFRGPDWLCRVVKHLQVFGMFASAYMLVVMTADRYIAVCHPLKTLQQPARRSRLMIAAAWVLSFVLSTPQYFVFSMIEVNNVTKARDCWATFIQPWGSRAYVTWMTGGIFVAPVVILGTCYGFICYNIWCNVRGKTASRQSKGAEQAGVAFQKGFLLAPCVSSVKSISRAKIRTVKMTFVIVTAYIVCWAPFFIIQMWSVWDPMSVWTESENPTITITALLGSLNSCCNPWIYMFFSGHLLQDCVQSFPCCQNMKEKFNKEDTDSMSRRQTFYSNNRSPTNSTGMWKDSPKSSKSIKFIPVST
In words: human V1a receptor binding (3H-Vasopressin SPA, membranes of transfected HEK293 cells). Particulars: HEK293 cell membranes, Ki by Cheng-Prussoff equation, read-out: pKi hV1a (converted). As for the experimental part: The human V1a receptor was cloned by RT-PCR from total human liver RNA. The coding sequence was subcloned in an expression vector after sequencing to confirm the identity of the amplified sequence. […] Cell membranes were prepared from HEK293 cells transiently transfected with the expression vector and grown in 20 liter fermenters with the following protocol.
50 g of cells are resuspended in 30 ml freshly prepared ice cold Lysis buffer (50 mM HEPES, 1 mM EDTA, 10 mM MgCl2 adjusted to pH=7.4+complete cocktail of protease inhibitor (Roche Diagnostics)). Homogenized with Polytron for 1 min and sonicated on ice for 2×2 minutes at 80% intensity (Vibracell sonicator). The preparation is centrifuged 20 min at 500 g at 4° C., the pellet is discarded and the supernatant centrifuged 1 hour at 43′000 g at 4° C. (19,000 rpm). The pellet is resuspended in 12.5 ml Lysis buffer+12.5 ml Sucrose 20% and homogenized using a Polytron for 1-2 min. The protein concentration is determined by the Bradford method and aliquots are stored at −80° C. until use. For binding studies 60 mg Yttrium silicate SPA beads (Amersham) are mixed with an aliquot of membrane in binding buffer (50 mM Tris, 120 mM NaCl, 5 mM KCl, 2 mM CaCl2, 10 mM MgCl2) for 15 minutes with mixing. 50 μl of bead/membrane mixture is then added to each well of a 96 well plate, followed by 50 μl of 4 nM 3H-Vasopressin (American Radiolabeled Chemicals). For total binding measurement 100 μl of binding buffer are added to the respective wells, for non-specific binding 100 μl of […] cold vasopressin and for compound testing 100 μl of a serial dilution of each compound in 2% DMSO. The plate is incubated 1 h at room temperature, centrifuged 1 min at 1000 g and counted on a Packard Top-Count. Non-specific binding counts are subtracted from each well and data is normalized to the maximum specific binding set at 100%. To calculate an IC 50 the curve is fitted using a non-linear regression model (XLfit) and the Ki is calculated using the Cheng-Prussoff equation.
Regarding `Clc1ccc2c(c1)COCc1nnc([C@H]3CC[C@H](c4nsc5ccccc54)CC3)n1-2` [Example 3, 1-(4-Benzo[d]isothiazol-3-yl-cyclohexyl)-8-chloro-4H,6H-5-oxa-2,3,10b-triaza-benzo[e]azulene], the Ki is 0.288 nM.
As to `Fc1cccnc1[C@H]1CC[C@H](c2nnc3n2-c2ccc(Cl)cc2COC3)CC1` [Example 1], the Ki is 2.4 nM.
As to `FC(F)(C1CCCC1)[C@H]1CC[C@H](c2nnc3n2-c2ccc(Cl)cc2COC3)CC1` [Example 8, 8-Chloro-1-[4-(cyclopentyl-difluoro-methyl)-cyclohexyl]-4H,6H-5-oxa-2,3,10b-triaza-benzo[e]azulene], the Ki was 2.4 nM.
Consider `Clc1ccc2c(c1)COCc1nnc([C@H]3CC[C@H](c4n[nH]c5c4CCCC5)CC3)n1-2` [Example 6, 8-Chloro-1-[4-(4,5,6,7-tetrahydro-1H-indazol-3-yl)-cyclohexyl]-4H,6H-5-oxa-2,3,10b-triaza-benzo[e]azulene], for which the Ki was 4.9 nM.
For `CC(C)C[C@H]1CC[C@H](c2nnc3n2-c2ccc(Cl)cc2COC3)CC1` [Example 9, 8-Chloro-1-(4-isobutyl-cyclohexyl)-4H,6H-oxa-2,3,10b-triaza-benzo[e]azulene] the value was 25.7 nM.
Turning to `Clc1ccc2c(c1)COCc1nnc([C@H]3CC[C@H](c4onc5c4CCCC5)CC3)n1-2` [Example 5, 8-Chloro-1-[4-(4,5,6,7-tetrahydro-benzo[c]isoxazol-3-yl)-cyclohexyl]-4H,6H-5-oxa-2,3,10b-triaza-benzo[e]azulene], the Ki was 15.5 nM.
In the case of `Cc1cc([C@H]2CC[C@H](c3nnc4n3-c3ccc(Cl)cc3COC4)CC2)no1` [Example 4, 8-Chloro-1-[4-(5-methyl-isoxazol-3-yl)-cyclohexyl]-4H,6H-5-oxa-2,3,10b-triaza-benzo[e]azulene], the Ki was 3.98 nM.
For `Clc1ccc2c(c1)COCc1nnc([C@H]3CC[C@H](c4noc5ccccc54)CC3)n1-2` [Example 2, 1-(4-Benzo[d]isoxazol-3-yl-cyclohexyl)-8-chloro-4H,6H-5-oxa-2,3,10b-triaza-benzo[e]azulene], the Ki is 7.41 nM.
For `Cc1nc([C@H]2CC[C@H](c3nnc4n3-c3ccc(Cl)cc3COC4)CC2)no1` [Example 7, 8-Chloro-1-[4-(5-methyl-[1,2,4]oxadiazol-3-yl)-cyclohexyl]-4H,6H-5-oxa-2,3,10b-triaza-benzo[e]azulene], the Ki was 32.4 nM.
